Our source for the Activity values is ChEMBL document CHEMBL5678818, “Discovery of potent SOS1 inhibitors that block RAS activation via disruption of the RAS-SOS1 interaction” (Proc Natl Acad Sci U S A, 2019).

For test [1], the target named is T1, Ephrin type-B receptor 1 (Homo sapiens) (UniProt P54762).
T1 sequence (whole entry): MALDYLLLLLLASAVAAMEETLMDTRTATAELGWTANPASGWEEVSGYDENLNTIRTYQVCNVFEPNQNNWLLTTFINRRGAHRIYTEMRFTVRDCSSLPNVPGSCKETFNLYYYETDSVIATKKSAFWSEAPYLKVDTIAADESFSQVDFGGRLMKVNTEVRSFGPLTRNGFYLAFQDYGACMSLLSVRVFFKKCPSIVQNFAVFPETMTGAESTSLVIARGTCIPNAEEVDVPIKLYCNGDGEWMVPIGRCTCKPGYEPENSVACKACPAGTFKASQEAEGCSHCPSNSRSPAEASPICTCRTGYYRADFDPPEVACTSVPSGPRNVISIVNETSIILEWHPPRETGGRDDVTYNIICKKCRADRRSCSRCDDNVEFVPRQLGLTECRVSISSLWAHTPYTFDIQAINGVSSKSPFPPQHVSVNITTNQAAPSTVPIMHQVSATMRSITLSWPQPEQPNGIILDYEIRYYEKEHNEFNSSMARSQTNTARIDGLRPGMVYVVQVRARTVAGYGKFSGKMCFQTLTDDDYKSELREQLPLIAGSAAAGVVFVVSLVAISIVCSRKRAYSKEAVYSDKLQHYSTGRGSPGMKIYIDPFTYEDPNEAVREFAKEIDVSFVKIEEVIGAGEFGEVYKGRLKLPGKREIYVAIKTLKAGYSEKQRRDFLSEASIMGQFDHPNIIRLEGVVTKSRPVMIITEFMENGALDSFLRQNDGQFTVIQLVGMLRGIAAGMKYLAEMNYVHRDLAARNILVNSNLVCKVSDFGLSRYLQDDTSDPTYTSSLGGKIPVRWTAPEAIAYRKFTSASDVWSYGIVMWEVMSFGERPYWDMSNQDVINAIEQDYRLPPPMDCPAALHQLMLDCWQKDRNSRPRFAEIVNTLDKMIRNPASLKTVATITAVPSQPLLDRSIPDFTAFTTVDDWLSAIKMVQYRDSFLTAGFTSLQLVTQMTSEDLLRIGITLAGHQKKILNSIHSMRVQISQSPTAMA
Description: Inhibition of EPHB1 (unknown origin) assessed as residual activity at 1000 nM by KINOMEscan analysis relative to control.

Test [2] has as its target T2, Mitogen-activated protein kinase kinase kinase kinase 3 (Homo sapiens) (UniProt Q8IVH8).
T2 sequence (whole entry): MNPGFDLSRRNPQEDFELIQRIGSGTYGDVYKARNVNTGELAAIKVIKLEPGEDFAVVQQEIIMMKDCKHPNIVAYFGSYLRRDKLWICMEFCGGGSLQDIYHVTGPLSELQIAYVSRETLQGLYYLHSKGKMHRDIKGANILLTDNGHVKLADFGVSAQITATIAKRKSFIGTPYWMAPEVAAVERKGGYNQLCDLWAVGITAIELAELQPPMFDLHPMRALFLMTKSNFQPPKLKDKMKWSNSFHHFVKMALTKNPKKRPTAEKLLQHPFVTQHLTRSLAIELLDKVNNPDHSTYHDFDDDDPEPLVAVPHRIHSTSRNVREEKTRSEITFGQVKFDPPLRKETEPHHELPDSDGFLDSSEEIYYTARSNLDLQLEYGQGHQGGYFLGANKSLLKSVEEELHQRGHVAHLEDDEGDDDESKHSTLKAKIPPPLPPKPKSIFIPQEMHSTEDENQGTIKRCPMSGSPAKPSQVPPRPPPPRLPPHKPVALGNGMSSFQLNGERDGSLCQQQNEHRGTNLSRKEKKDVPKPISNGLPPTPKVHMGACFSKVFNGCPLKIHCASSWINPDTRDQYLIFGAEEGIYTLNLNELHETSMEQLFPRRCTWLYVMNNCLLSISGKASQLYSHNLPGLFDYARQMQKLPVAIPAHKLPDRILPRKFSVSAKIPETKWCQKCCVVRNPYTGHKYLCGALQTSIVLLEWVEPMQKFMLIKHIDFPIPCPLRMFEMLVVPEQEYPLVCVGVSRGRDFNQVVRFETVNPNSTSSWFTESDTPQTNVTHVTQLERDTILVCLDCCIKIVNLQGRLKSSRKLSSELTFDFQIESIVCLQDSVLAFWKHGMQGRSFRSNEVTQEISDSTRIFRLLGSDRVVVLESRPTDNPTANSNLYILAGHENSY
Description: Inhibition of MAP4K3 (unknown origin) assessed as residual activity at 1000 nM by KINOMEscan analysis relative to control.

The test system of test [3] is Tyrosine-protein kinase ABL1 (Homo sapiens), P00519 [M351T]. Description: Inhibition of phosphorylated ABL1 M351T mutant (unknown origin) assessed as residual activity at 1000 nM by KINOMEscan analysis relative to control.
In test [4] the test system is Hepatocyte growth factor receptor (Homo sapiens), P08581 [M1250T]. Nature of the test: Inhibition of MET M1250T mutant (unknown origin) assessed as residual activity at 1000 nM by KINOMEscan analysis relative to control.
For test [5], the target named is T3, Rhodopsin kinase GRK7 (Homo sapiens) (UniProt Q8WTQ7).
T3 sequence (whole entry): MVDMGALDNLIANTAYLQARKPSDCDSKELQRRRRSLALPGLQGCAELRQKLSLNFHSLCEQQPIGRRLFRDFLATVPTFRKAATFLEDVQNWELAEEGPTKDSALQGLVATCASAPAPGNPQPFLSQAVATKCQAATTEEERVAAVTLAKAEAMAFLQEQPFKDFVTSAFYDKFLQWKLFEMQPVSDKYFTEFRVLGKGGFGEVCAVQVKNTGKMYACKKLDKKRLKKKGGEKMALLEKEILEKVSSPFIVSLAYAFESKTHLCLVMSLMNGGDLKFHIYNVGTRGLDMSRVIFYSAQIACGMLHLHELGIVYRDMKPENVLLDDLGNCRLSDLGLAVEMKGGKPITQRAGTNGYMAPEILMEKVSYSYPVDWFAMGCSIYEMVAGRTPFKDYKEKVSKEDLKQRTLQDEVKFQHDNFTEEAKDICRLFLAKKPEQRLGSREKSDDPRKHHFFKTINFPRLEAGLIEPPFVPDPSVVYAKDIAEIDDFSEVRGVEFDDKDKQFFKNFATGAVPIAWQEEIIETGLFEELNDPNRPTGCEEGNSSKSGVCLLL
Description: Inhibition of GRK7 (unknown origin) assessed as residual activity at 1000 nM by KINOMEscan analysis relative to control.

Regarding `COc1cc2ncnc(N[C@H](C)c3cccc4ccccc34)c2cc1OC`, the Activity was found to be 100% in test [1]; 100% in test [2]; 97% in test [3]; 98% in test [4]; 81% in test [5].

Turning to `COc1cc2nc(C)nc(N[C@H](C)c3cccc(-c4cn[nH]c4)c3)c2cc1OC`, the Activity was 77% in test [1]; 90% in test [2]; 97% in test [3]; 100% in test [4]; 100% in test [5].
